Measurements taken from US11066400B2, “Compounds for the treatment of cancer” (Hoffmann-La Roche Inc., priority 2015, dated 2021).

Key:
[1] = tested on: FoxM1_ΔVIIa / FoxM1_FL mRNA (FoxM1 gene splicing); assay: Monitoring expression levels of FoxM1 splice variants using real-time quantitative PCR; type: cell-based; settings: Fibroblast; human fibroblasts, 24 hours, RT-qPCR, Hill fit of concentration dependence curves
Protocol: Human fibroblasts were plated at 10,000 cells/well in 200 μl DMEM with GlutaMAX and 10% FBS in 96-well plates in a cell culture incubator (37° C., 5% CO2, 100% relative humidity). Cells were then treated with compounds at different concentrations (0.1-300 nM, each in 0.5% DMSO) in triplicate for 24 hours. RNA extraction was performed as per instructions mentioned in the Ambion® Cells-to-CT™ Kits from Applied Biosystems®. RNA samples were frozen at −20° C. until further analysis. Relative expression levels of full-length FoxM1 (FoxM1_FL) or FoxM1 lacking exon VIIa (FoxM1_ΔVIIa) with GAPDH for internal control, was measured using one-step multiplex reverse transcription-polymerase chain reaction (RT-PCR). TaqMan® FAM probes were used for relative quantitation of FoxM1_FL or FoxM1_ΔVIIa expression levels and TaqMan® VIC probes were used for relative quantitation of human GAPDH levels. The fidelity of the amplification methods was determined using the ΔΔCt relative quantification method for quantitative PCR.
To investigate an effect on splicing of FoxM1, human fibroblasts were treated for 24 hours with compounds of the present invention in dose response, and analysed by RT-qPCR for presence of mRNA including (FoxM1_FL) or excluding the exon VIIa (FoxM1_ΔVIIa). […] Correspondingly, the mRNAs for FoxM1_ΔVIIa declined. […] The resulting concentration dependence curves of the FoxM1_ΔVIIa splice variant were fitted to a Hill binding equation to yield IC50 values that are described in Table 1. […] Taken together, the data underline a splicing modifying activity in the FoxM1 gene.

[2] = tested on: SMN protein; settings: taken from Activity Tables of WO 2014/028459, WO 2014/116845, WO 2015/017589; cited from earlier work

`CN(c1ccc(-c2ccc(-c3cn[nH]c3)cc2O)nn1)C1CC(C)(C)NC(C)(C)C1` [Compound 2, 5-(1H-pyrazol-4-yl)-2-(6-(methyl(2,2,6,6-tetramethylpiperidin-4-yl)amino)pyridazin-3-yl)phenol] showed an IC50 [1] of 0.9 nM.
Work on `CN(c1ccc(-c2ccc(-c3cnn(C)c3)cc2O)nn1)C1CC(C)(C)NC(C)(C)C1` [Compound 3, 2-(6-(methyl-(2,2,6,6-tetramethylpiperidin-4-yl)amino)pyridazin-3-yl)-5-(1-methyl-1H-pyrazol-4-yl)phenol] yielded an IC50 [1] of 9.8 nM.
Work on `COc1ccc2cc(-c3ccc(N(C)C4CC(C)(C)NC(C)(C)C4)nn3)c(O)cc2c1` [Compound 11, 7-methoxy-3-(6-(methyl(2,2,6,6-tetramethylpiperidin-4-yl)amino)pyridazin-3-yl)naphthalen-2-ol] yielded an IC50 [1] of 0.8 nM.
For `CN(c1nnc(-c2ccc(-c3cn[nH]c3)cc2Cl)s1)C1CC(C)(C)NC(C)(C)C1` [Compound 12, 5-(2-Chloro-4-(1H-pyrazol-4-yl)phenyl)-N-methyl-N-(2,2,6,6-tetramethylpiperidin-4-yl)-1,3,4-thiadiazol-2-amine], the IC50 [1] is listed as 265 nM and the EC50 [2] is listed as 34 nM.
For `CC1(C)CC(Oc2ccc(-c3ccc(-n4cccn4)cc3O)nn2)CC(C)(C)N1` [Compound 5], the IC50 [1] was 278 nM.
With `CN(c1ccc(-c2cc3ccc(O)cc3cc2O)nn1)C1CC(C)(C)NC(C)(C)C1` [Compound 9, 3-(6-(methyl-(2,2,6,6-tetramethylpiperidin-4-yl)amino)pyridazin-3-yl)naphthalene-2,7-diol] the IC50 [1] was 0.7 nM.
Compound `CC1(C)CC(Oc2ccc(-c3ccc(-c4cn[nH]c4)cc3O)nn2)CC(C)(C)N1` [Compound 4] has an IC50 [1] of 17 nM.
In the case of `CN(c1ccc(-c2cc3ccccc3cc2O)nn1)C1CC(C)(C)NC(C)(C)C1` [Compound 8, 3-(6-(methyl(2,2,6,6-tetramethylpiperidin-4-yl)amino)pyridazin-3-yl)naphthalen-2-ol], the IC50 [1] is reported as 3.7 nM.
In the case of `CN(c1nnc(-c2ccc(-c3ccn(C)c(=O)c3)cc2Cl)s1)C1CC(C)(C)NC(C)(C)C1` [Compound 13, 4-(3-chloro-4-(5-(methyl(2,2,6,6-tetramethylpiperidin-4-yl)amino)-1,3,4-thiadiazol-2-yl)phenyl)-1-methylpyridin-2(1H)-one], the IC50 [1] is listed as 345 nM and the EC50 [2] is listed as 50 nM.
`CN(c1ccc(-c2ccc(-c3ccc(=O)n(C)c3)cc2O)nn1)C1CC(C)(C)NC(C)(C)C1` [Compound 7, 5-(3-hydroxy-4-(6-(methyl-(2,2,6,6-tetramethylpiperidin-4-yl)amino)pyridazin-3-yl)phenyl)-1-methylpyridin-2(1H)-one] showed an IC50 [1] of 167 nM.
For `CN(c1nnc(-c2cc(F)c(-c3ccn[nH]3)cc2F)s1)C1CC(C)(C)NC(C)(C)C1` [Compound 14, 5-(2,5-difluoro-4-(1H-pyrazol-5-yl)phenyl)-N-methyl-N-(2,2,6,6-tetramethylpiperidin-4-yl)-1,3,4-thiadiazol-2-amine], the IC50 [1] is listed as 144 nM and the EC50 [2] is listed as 85 nM.
Compound `CN(c1ccc(-c2ccc(C#N)cc2O)nn1)C1CC(C)(C)NC(C)(C)C1` [Compound 1, 3-hydroxy-4-(6-(methyl(2,2,6,6-tetramethylpiperidin-4-yl)amino)pyridazin-3-yl)benzonitrile] has an IC50 [1] of 41 nM.
